According to ChEMBL document CHEMBL3774354, “Discovery of Selective Histone Deacetylase 6 Inhibitors Using the Quinazoline as the Cap for the Treatment of Cancer” (J Med Chem, 2016):
Active and inactive are the calls of the source. No cut-off for these calls is given here.

Tests used:
[1] = Cytotoxicity against human RPMI8226 cells after 72 hrs by MTT assay; assay type: functional, cell-based; settings: RPMI-8226, 72 h
A2780 = assay: Cytotoxicity against human A2780 cells after 72 hrs by MTT assay; assay type: functional, cell-based; settings: A2780, 72 h
HeLa [2] = assay: Induction of histone H3 acetylation in human HeLa cells incubated for 6 hrs by cytoblot assay; assay type: functional, cell-based
[3] = target: T1, Protein deacetylase HDAC6 (Homo sapiens) (UniProt Q9UBN7); assay: Inhibition of HDAC6 in human MV4-11 cells assessed as upregulation of alpha- tubulin acetylation after 6 hrs by Western blot analysis; assay type: cell-based
T1 sequence (whole entry): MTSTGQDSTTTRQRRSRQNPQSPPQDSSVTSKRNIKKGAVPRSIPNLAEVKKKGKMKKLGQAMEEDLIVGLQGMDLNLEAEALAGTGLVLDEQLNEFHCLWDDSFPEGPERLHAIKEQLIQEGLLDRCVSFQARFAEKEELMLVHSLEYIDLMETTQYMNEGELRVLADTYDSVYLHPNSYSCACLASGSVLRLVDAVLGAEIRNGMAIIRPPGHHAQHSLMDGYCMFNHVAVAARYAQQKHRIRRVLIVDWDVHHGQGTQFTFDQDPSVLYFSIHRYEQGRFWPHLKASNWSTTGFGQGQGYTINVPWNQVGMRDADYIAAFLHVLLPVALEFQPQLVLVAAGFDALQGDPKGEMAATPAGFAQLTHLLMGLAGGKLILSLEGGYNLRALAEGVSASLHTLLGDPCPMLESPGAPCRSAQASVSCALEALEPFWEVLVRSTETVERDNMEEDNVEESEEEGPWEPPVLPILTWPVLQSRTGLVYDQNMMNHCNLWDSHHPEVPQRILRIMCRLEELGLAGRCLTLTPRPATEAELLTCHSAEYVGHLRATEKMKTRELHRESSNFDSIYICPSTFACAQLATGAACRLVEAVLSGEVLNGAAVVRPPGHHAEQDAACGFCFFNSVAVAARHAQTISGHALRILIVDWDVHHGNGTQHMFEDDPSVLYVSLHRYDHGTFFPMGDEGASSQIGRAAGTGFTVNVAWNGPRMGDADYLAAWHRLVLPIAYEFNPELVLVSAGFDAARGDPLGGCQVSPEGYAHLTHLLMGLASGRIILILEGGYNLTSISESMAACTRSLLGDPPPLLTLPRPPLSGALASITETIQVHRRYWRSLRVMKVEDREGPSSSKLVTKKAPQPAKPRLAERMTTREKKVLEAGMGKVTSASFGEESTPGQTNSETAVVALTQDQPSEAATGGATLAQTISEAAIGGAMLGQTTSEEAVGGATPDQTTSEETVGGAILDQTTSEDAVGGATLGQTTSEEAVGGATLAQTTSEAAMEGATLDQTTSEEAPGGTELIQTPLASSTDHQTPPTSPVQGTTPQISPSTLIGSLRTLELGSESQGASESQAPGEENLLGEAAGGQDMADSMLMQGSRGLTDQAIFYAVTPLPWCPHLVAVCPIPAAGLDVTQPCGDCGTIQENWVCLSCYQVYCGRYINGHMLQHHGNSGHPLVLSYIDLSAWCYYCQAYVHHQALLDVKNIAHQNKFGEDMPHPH

HepG2 = assay: Cytotoxicity against human HepG2 cells after 72 hrs by MTT assay; assay type: functional, cell-based; settings: HepG2, 72 h
[4] = Volume of distribution at steady state in Sprague-Dawley rat at 12 mg/kg, iv administered by bolus injection measured up to 24 hrs by LC-MS/MS analysis; assay type: ADME, organism-based; settings: in vivo, read-out: Vdss
Histone deacetylase 11 = Histone deacetylase 11 (Homo sapiens, UniProt Q96DB2)
Description: Inhibition of recombinant HDAC11 (unknown origin) using AMC labeled AC-peptide as substrate incubated for 1 hr by fluorescence analysis

HT-29 = assay: Cytotoxicity against human HT-29 cells after 72 hrs by MTT assay; assay type: functional, cell-based; settings: HT-29, 72 h
[5] = target: T1, Protein deacetylase HDAC6 (Homo sapiens); assay: Inhibition of HDAC6 in human HCT116 cells assessed as upregulation of alpha- tubulin acetylation after 6 hrs by Western blot analysis; assay type: cell-based; settings: HCT-116
K562 = assay: Cytotoxicity against human K562 cells after 72 hrs by MTT assay; assay type: functional, cell-based; settings: K562, 72 h
Ramos [6] = assay: Antitumor activity against human Ramos cells xenografted in NOD/SCID mouse assessed as tumor mass change at 40 mg/kg, po q2d for 6 days; assay type: functional
Histone deacetylase 9 [7] = target: T2, Histone deacetylase 9 (Homo sapiens, UniProt Q9UKV0); assay: Inhibition of recombinant HDAC9 (unknown origin) using AMC labeled AC-peptide as substrate at 10 uM incubated for 1 hr by fluorescence analysis
Mus musculus [8] = assay: Toxicity in NOD/SCID mouse xenografted with human MV4-11 cells assessed as death at 50 mg/kg, iv q2d for 12 days; assay type: organism-based; settings: in vivo, 288 h
HeLa [9] = assay: Antiproliferative activity against human HeLa cells after 72 hrs by MTT assay; assay type: functional, cell-based
Histone deacetylase 9 [10] = target: T2, Histone deacetylase 9
Description: Inhibition of recombinant HDAC9 (unknown origin) using AMC labeled AC-peptide as substrate incubated for 1 hr by fluorescence analysis

Rattus norvegicus = assay: Volume of distribution at steady state in Sprague-Dawley rat at 12 mg/kg, po measured up to 24 hrs by LC-MS/MS analysis; assay type: ADME, organism-based; settings: in vivo
[11] = Cmax in Sprague-Dawley rat at 12 mg/kg, po measured up to 24 hrs by LC-MS/MS analysis; assay type: ADME, organism-based; set-up: dose 12 mg/kg, route oral; settings: in vivo
[12] = target: T3, Protein deacetylase HDAC6 (Homo sapiens, UniProt Q9UBN7); assay: Inhibition of HDAC6 in human HeLa cells assessed as induction of tubulin acetylation incubated for 6 hrs by cytoblot assay; assay type: cell-based
T3 sequence (Q9UBN7 whole entry): T1 sequence (whole entry)

[13] = Cytotoxicity against human U266 cells after 72 hrs by MTT assay; assay type: functional, cell-based; settings: U-266, 72 h
Mus musculus [14] = assay: Toxicity in NOD/SCID mouse xenografted with human Ramos cells assessed as death at 40 mg/kg, po q2d for 6 days; assay type: organism-based; settings: in vivo, 144 h
Ramos [15] = assay: Antitumor activity against human Ramos cells xenografted in NOD/SCID mouse assessed as tumor mass change at 80 mg/kg, po q2d for 6 days; assay type: functional
[16] = Cytotoxicity against human HCT116 cells after 72 hrs by MTT assay; assay type: functional, cell-based; settings: HCT-116, 72 h
Mus musculus [17] = assay: Toxicity in Balb/c nude mouse xenografted with human HCT116 cells assessed as change in body weight at 50 mg/kg, iv q2d for 9 days; assay type: organism-based, HCT-116; settings: in vivo, 216 h
Ramos [18] = assay: Antitumor activity against human Ramos cells xenografted in orally dosed NOD/SCID mouse assessed as tumor mass reduction administered as q2d for 6 days; assay type: functional, organism-based
[19] = target: Histone deacetylase 1/2/3 (Homo sapiens) (UniProt Q13547+O15379+Q92769); settings: MV4-11, 1000 nM
Description: Inhibition of HDAC1/2/3 in human MV4-11 cells assessed as upregulation of histone H3 acetylation at 1000 nM after 6 hrs by Western blot analysis

[20] = Cytotoxicity against human H460 cells after 72 hrs by MTT assay; assay type: functional, cell-based; settings: NCI-H460, 72 h
A549 = assay: Cytotoxicity against human A549 cells after 72 hrs by MTT assay; assay type: functional, cell-based; settings: A549, 72 h
Mus musculus [21] = assay: Toxicity in Balb/c nude mouse xenografted with human HCT116 cells assessed as death at 50 mg/kg, iv q2d for 9 days; assay type: organism-based, HCT-116; settings: in vivo, 216 h

T2 sequence (Q9UKV0 whole entry): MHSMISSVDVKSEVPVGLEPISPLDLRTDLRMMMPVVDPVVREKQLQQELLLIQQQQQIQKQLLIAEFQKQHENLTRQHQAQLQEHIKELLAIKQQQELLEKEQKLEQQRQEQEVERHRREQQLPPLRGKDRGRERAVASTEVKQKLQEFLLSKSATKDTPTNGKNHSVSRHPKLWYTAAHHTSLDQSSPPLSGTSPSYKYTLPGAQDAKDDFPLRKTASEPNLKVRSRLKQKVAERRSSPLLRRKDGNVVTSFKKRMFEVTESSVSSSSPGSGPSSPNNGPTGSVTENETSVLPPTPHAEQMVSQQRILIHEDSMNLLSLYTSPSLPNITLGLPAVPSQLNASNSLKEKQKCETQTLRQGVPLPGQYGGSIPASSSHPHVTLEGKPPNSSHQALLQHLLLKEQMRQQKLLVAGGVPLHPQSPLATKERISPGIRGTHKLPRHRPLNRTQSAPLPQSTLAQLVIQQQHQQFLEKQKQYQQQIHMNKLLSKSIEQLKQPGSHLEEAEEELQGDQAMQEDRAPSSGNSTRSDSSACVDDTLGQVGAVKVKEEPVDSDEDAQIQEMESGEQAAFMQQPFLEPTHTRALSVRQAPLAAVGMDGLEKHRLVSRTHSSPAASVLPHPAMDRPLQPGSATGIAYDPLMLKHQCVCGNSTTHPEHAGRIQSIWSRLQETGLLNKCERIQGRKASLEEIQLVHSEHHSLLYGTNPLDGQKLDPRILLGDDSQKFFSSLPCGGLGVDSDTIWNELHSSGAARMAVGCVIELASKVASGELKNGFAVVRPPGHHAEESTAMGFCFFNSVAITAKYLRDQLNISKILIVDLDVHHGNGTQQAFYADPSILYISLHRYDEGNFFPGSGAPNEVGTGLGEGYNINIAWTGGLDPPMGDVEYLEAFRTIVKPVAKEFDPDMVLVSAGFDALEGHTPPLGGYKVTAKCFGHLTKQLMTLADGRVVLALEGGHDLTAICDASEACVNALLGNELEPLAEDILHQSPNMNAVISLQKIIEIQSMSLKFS
Histone deacetylase 11, sequence (Q96DB2 whole entry): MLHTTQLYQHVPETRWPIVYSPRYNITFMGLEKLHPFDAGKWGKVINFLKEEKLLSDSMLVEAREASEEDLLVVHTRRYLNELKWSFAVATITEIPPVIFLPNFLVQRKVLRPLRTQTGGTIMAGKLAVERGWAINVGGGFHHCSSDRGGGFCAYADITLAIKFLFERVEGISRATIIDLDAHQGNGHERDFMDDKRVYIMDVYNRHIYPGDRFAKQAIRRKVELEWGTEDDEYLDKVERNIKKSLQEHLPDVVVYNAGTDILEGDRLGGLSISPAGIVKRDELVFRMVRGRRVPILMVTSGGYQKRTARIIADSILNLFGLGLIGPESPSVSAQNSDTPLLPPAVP

Structure (SMILES): COc1ccc(N(C)c2nc(C)nc3ccccc23)cc1OCCCC(=O)NO
- IC50 [1]: 0.015 µM
- IC50 (A2780): 0.046 µM
- EC50 (HeLa [2]): 1.74 µM
- inhibition [3]: Dose-dependent effect
- IC50 (HepG2): 0.041 µM
- Vd [4]: 61.3 L/kg
- IC50 (Histone deacetylase 11): > 10 µM
- IC50 (HT-29): 0.072 µM
- inhibition [5]: Dose-dependent effect
- IC50 (K562): 0.063 µM
- Activity (Ramos [6]): 22.5%
- inhibition (Histone deacetylase 9 [7]): inactive
- Activity (Mus musculus [8]): Non-toxic
- IC50 (HeLa [9]): 0.049 µM
- IC50 (Histone deacetylase 9 [10]): > 10 µM
- Vdss (Rattus norvegicus): 154.811 L/kg
- Cmax [11]: 238 ng/mL
- EC50 [12]: 0.0589 µM
- IC50 [13]: 0.014 µM
- Activity (Mus musculus [14]): Non-toxic
- Activity (Ramos [15]): 58.79%
- IC50 [16]: 0.035 µM
- Activity (Mus musculus [17]): -5.7%
- inhibition (Ramos [18]): Dose-dependent effect
- inhibition [19]: Active
- IC50 [20]: 0.055 µM
- IC50 (A549): 0.104 µM
- Activity (Mus musculus [21]): Non-toxic
